# Measured values as given in patent US4391816A, “N-(Naphthalenylthioxomethyl)aminoacid derivatives” (Ayerst, McKenna & Harrison Inc., priority 1981, dated 1983).
# Key:
# [1] = test system: aldose reductase; settings: reported in the literature; cited from earlier work
# [2] = molecular target: T1, aldose reductase (Bos taurus, UniProt P16116); test: in vitro aldose reductase inhibition (enzyme from bovine lens, modified Hayman and Kinoshita procedure); type: biochemical; settings: for inhibition at 10 µM: 10^-5 molar, read-out: % Inhibition at Different Molar Concentrations (in vitro), 10^-5; for inhibition at 1 µM: 10^-6 molar, read-out: % Inhibition at Different Molar Concentrations (in vitro), 10^-6; for inhibition at 0.1 µM: 10^-7 molar, read-out: % Inhibition at Different Molar Concentrations (in vitro), 10^-7
# T1 construct: preparation of the enzyme from bovine lens; from tissue; host or cells: bovine lens
# Protocol: In the present case the procedure of Hayman and Kinoshita is modified in that the final chromatography step is omitted in the preparation of the enzyme from bovine lens.
# The following results were obtained when the compounds of this invention were evaluated in the above in vitro test.
inhibition at 10 µM [2],inhibition at 1 µM [2],inhibition at 0.1 µM [2],SMILES,inhibition of aldose reductase (in words) [1]
–,–,–,"O=C(O)CN1C(=O)c2cccc3cccc(c23)C1=O [1,3-Dioxo-1H-benz[de]isoquinoline-2(3H)-acetic acid]",effective inhibitor of aldose reductase
91%,67%,19%,COc1c(Cl)cc(C(=S)N(C)CC(=O)O)c2cccc(S(=O)(=O)N(C)C)c12 [N-[[3-chloro-4-methoxy-5-(dimethylaminosulfonyl)-1-naphthalenyl]thioxomethyl]-N-methylglycine],–
80%,35%,6%,COc1ccc(C(=S)N(C)CC(=O)O)c2cccc(S(=O)(=O)N(C)C)c12 [N-[[4-methoxy-5-(dimethylaminosulfonyl)-1-naphthalenyl]thioxomethyl]-N-methylglycine],–
56%,26%,–,"O=C(O)[C@@H]1CCCN1C(=S)c1cccc2c(Br)cccc12 [R^1 R^2=CH2 CH2 CH2, R^3=5-Br, n=O, N-[(5-bromo-1-naphthalenyl)thioxomethyl]-L-proline]",–
86%,80%,39%,"O=C(O)CN(C(=S)c1cccc2c(Br)cccc12)c1ccc(Cl)cc1 [R^1=4-Cl--C6 H4, R^2=H, R^3=5-Br, n=O, N-[(5-bromo-1-naphthalenyl)thioxomethyl]-N-(4-chlorophenyl)glycine]",–
46%,7%,–,"O=C(O)CN(CC(=O)O)C(=S)c1cccc2c(Br)cccc12 [R^1=CH2 COOH, R^2=H, R^3=5-Br, n=O, N-[(5-bromo-1-naphthalenyl)thioxomethyl]-N-(carboxymethyl)glycine]",–
18%,–,–,"CC(C(=O)O)N(C)C(=S)c1cccc2c(Br)cccc12 (centres unmarked) [R^1=CH3, R^2=CH3, R^3=5-Br, n=O *]",–
90%,74%,28%,"CN(CC(=O)O)C(=S)c1cc(Br)cc2ccccc12 [R^1=CH3, R^2=H, R^3=3-Br, n=O, N-[(3-Bromo-1-naphthalenyl)thioxomethyl]-N-methylglycine]",–
37%,–,–,"CN(CCCC(=O)O)C(=S)c1cccc2c(Br)cccc12 [R^1=CH3, R^2=H, R^3=5-Br, n=2, N-[(5-bromo-1-naphthalenyl)thioxomethyl]-N-methyl-4-aminobutanoic acid]",–
91%,75%,18%,"CN(CC(=O)O)C(=S)c1cccc2cc(Br)ccc12 [R^1=CH3, R^2=H, R^3=6-Br, n=O, N-[(6-bromo-1-naphthalenyl)thioxomethyl)-N-methylglycine]",–
86%,58%,15%,"CN(CC(=O)O)C(=S)c1cccc2ccc(Br)cc12 [R^1=CH3, R^2=H, R^3=7-Br, n=O, N-[(7-bromo-1-naphthalenyl)thioxomethyl]-N-methylglycine]",–
–,–,–,"O=C1NC(=O)[C@@]2(CCOc3ccc(F)cc32)N1 [sorbinil, (S)-6-Fluoro-2,3-dihydrospiro(4H-1-benzopyran-4,4'-imidazolidine)-2',5'-dione]",aldose reductase inhibiting properties
